Here are results for 1 molecule from BindingDB's records for doi:10.7270/Q2HT2MQ5 (Nmmlsc, 2009).

This test addresses Cell division control protein 42 homolog (Homo sapiens, UniProt P60953). Kind of test: wild-type Cdc42 nucleotide-binding inhibitors, SAR follow-up, biochemical, bead-based multiplex flow cytometry, oxadiazole series (AID 2037). The following applies: inactive by the depositor's call. In general terms: Flow cytometry measures light scatter and fluorescence of single cells or particles in a stream.

As a reminder, the Ki is the dissociation constant of the complex between target and ligand, obtained from inhibition or displacement.

Chain of Cell division control protein 42 homolog (P60953 whole entry): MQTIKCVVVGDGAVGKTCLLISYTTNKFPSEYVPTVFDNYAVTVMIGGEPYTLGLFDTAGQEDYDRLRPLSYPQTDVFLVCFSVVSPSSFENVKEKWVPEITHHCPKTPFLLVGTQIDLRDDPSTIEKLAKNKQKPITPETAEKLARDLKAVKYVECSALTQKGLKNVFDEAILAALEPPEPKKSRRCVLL

The molecule `COc1ccc(-c2noc(CCC(=O)N3CCN(c4ccc(OC)cc4)CC3)n2)cc1` [3-[3-(4-methoxyphenyl)-1,2,4-oxadiazol-5-yl]-1-[4-(4-methoxyphenyl)piperazin-1-yl]propan-1-one] showed an inhibitory constant (Ki) of 100 nM.
